{
  "source": "patent US20200003756A1",
  "about": "“METHOD FOR OBSERVING SEBACEOUS GLAND” (MANDOM CORPORATION, priority 2017, published 2020)",
  "key": {"[1]": {"tested_on": "sebaceous-gland-structure A", "test": "Observation of inside of sebaceous-gland-structure, lipid droplets of sebum in outermost layer / degree of progress of sebum production (Example 2)", "format": "cell-based", "conditions": "test sample B, linoleic acid 1×10^−4 M, 24 hours (Experiment number 8); FIGS. 8 and 10", "description": "Linoleic acid and linoleic acid receptor antagonist (manufactured by Abeam plc, trade name: GSK-3787) as test substances were added to the mixed medium obtained in Preparation Example 1 so that the concentration of linoleic acid was 1×10^−4 M and so that the concentration of the test substance was 1 μM, to obtain a test sample D.\nOne milliliter of the test sample A was added to each well of a 24-well plate. Next, the sebaceous-gland-structure A obtained in Preparation Example 6 was cultured in a suspended state in the test sample A in each well of the 24-well plate in the presence of 5% by volume carbon dioxide at 37° C. for 24 hours, to contact the sebaceous-gland-structure A with the test sample A (Experiment number 7). […]\nFurthermore, the state of each cell of 40 cells in the outermost layer shown in each figure was evaluated by using the results shown in FIGS. 7 to 9 on the basis of the evaluation criterion described below. […]\nNext, the degree of progress of sebum production in the sebaceous gland cell contained in the sebaceous-gland-structure A was evaluated by calculating the mean value of the points in the 40 cells in the outermost layer in FIGS. 7 to 9. […]"}, "[2]": {"tested_on": "sebaceous-gland-structure A", "test": "Degree of sebum production from three-dimensional image analysis of outermost layer (Example 4)", "format": "cell-based", "conditions": "linoleic acid 1×10^−4 M, 24 hours", "description": "Linoleic acid and phytic acid as test substances were added to the mixed medium obtained in Preparation Example 1 (test sample A) so that the concentration of linoleic acid was 1×10^−4M and so that the concentration of the test sample was 100 μM, to obtain a test sample E. One milliliter of the test sample A was added to each well of a 24-well plate. Text, the sebaceous-gland-structure A obtained in Preparation Example 6 was cultured in a suspended state in the test sample A contained in each well of the 24-well plate in the presence of 5% by volume carbon dioxide at 37° C. for 24 hours, to contact the sebaceous-gland-structure A with the test sample A (Experiment number 10). In addition, the sebaceous-gland-structure A was contacted with the test sample B (Experiment number 11) or the test sample E (Experiment number 12) in the same manner as in Experiment, number 10 except that in Experiment number 10, the test sample B obtained in Example 1(1) (Experiment number 11) or the test sample E obtained in Example 4(1) (Experiment number 12) was used in place of the test sample A. Each of observation samples of Experiment numbers 10 to 12 was obtained in the same manner as in Preparation Example 7 except that in Preparation Example 7, the cultured sebaceous-gland-structure A obtained in Example 4(2) (Experiment numbers 10 to 12) was used in place of the cultured sebaceous-gland-structure A obtained in Preparation Example 6. The appearance of the sebaceous-gland-structure A contained in the observation sample of each of Experiment numbers 10 to 12 obtained in Example 4(3) was observed under a confocal microscope by using image analysis software (manufactured b Bitplane AG, trade name: Imaris), thereby giving three-dimensional image of the sebaceous-gland-structure A. Next, information of the outermost layer of the sebaceous-gland-structure A was extracted from the data of the resulting three-dimensional image by using image analysis software (manufactured by Bitplane AG, trade name: Imaris). Thereafter, the whole volume of the cells present in the outermost layer was calculated from the extracted information, and thereafter the sebum droplets contained in the outermost layer were counted. Using the whole volume of the cells present in the outermost layer and the number of lipid droplets of the sebum the degree of sebum production was calculated according to Formula (I): [Degree of Sebum production]=[Number of lipid droplets of sebum]/[Whole volume of cells present in outermost layer] (I)"}},
  "data": [
    {"smiles": "CCCCC/C=C\\C/C=C\\CCCCCCCC(=O)O", "note": "[linoleic acid, Linoleic acid]", "values": [
      {"measurement": "lipid droplets of sebum in the outermost layer of the sebaceous-gland-structure A", "setting": "[1]", "result": "lipid droplets of sebum were found"},
      {"measurement": "sebum production-regulating action", "setting": "[2]; conclusion from FIG. 11", "result": "sebum production-promoting action"},
      {"measurement": "degree of sebum production (number of lipid droplets of sebum / whole volume of cells present in outermost layer)", "setting": "[2]; test sample B, compared with test sample A not containing linoleic acid, FIG. 11", "result": "higher"}
    ]}
  ]
}
